Measurements reported in patent US20260234115A1, “LIPID COMPOUNDS, COMPOSITIONS, AND USES THEREOF” (Liberate Bio, Inc., priority 2023, published 2026).
Marks after values point to notes of the source that are not given here.

How the values were obtained:
mouse organs = assay: In vivo activity screening in mice: organ mean total flux (p/s) of luciferase activity after injection of F2 LNP pools (Table 6, FIG. 7A-7C); details: luciferase mRNA
Outline: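 C57BL/6J mice given one tail-vein injection of pooled Formulation F2 LNPs carrying firefly luciferase mRNA (0.25-3 mg/kg) in PBS. At 4-6 h, s.c. D-luciferin given; organs imaged ex vivo by IVIS within 10-15 min, after saline cardiac perfusion. Mean total flux (p/s) per organ ROI.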

NHP organs = assay: In vivo activity screening in non-human primates: mean normalized UMI counts of barcoded mRNA in tissues after IV infusion of pooled F2 LNPs (Table 7, FIG. 8-11); set-up: species or system cynomolgus monkeys (Macaca fascicularis); details: cynomolgus monkey, in vivo, iv
Experimental: Non-human primate (NIIP) biodistribution studies were performed in cynomolgus monkeys (e.g., Macaca fascicularis), aged 4-6 years. Animals were premedicated with dexamethasone, famotidine and diphenhydramine (at 1, 0.5 and 5 mg/kg, respectively) −2 and −1 day prior to test material dosing. LNP formulations (prepared in Formulation F2 from Example 1) were prepared with ionizable lipids so that each LNP formulation encapsulates one or more mRNAs with predetermined unique barcode sequences as their cargo. LNPs in PBS, identified by their unique barcoded mRNA cargo, are then pooled together at predetermined ratios. To evaluate LNP biodistribution into tissues upon systemic administration, NHPs received the dose administration by single intravenous infusion via peripheral vein (cephalic, saphenous, or another available) for 30 minutes with LNP dosing material (individual or pooled) in PBS at different total dose (0.5-1 mg/kg) levels.
At predetermined time points (4-6 hours after pooled test material administration), animals were sacrificed by exsanguination via the femoral artery after the intravenous injection of ketamine (10 mg/kg) and Euthasol® (0.25 mL/kg). Then, all animals underwent whole-body perfusion with PBS prior to tissue collection. 20-25 mg samples for biodistribution analysis were collected from all treatment group animals and then placed in sample tubes containing RNALater™ solution. All tissue samples were stored at room temperature for 24 hours, then the supernatants were removed, and samples were frozen.
To determine the unique LNPs distributed in the tissues, samples were homogenized by a tissue homogenizer (e.g., TissueLyser). Total RNA from the tissue homogenates were extracted by standard methods. Then, normalized amounts of RNA were sequenced using a targeted RNA sequencing approach with unique molecular identifiers (UMI) to ensure accurate RNA molecule counting. For each tissue, the resulting RNA molecule counts were normalized by pooled test article RNA counts. The results were analyzed using the internal bioinformatics pipeline.
LNPs comprising MC3 used as a control and for cross-mouse comparison. Dose is in mg/kg; LC is Lipid Compound according to Table 1.
Screening results for NHP Group 1 (spleen, femur, and muscle) are shown in FIG. 8A, FIG. 8B, and FIG. 8C.

[1] = Dynamic light scattering: LNP particle size and PDI; format: physicochemical; details: LNP compositions for Formulation F2 Study
Outline: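 The LNPs were made by microfluidic mixing of the lipids in ethanol with mRNA in pH 4.0 citrate, then dialyzed into PBS pH 7.4. They were diluted in PBS pH 7.4, and particle size and PDI were measured by dynamic light scattering.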

[2] = Plate-based fluorescence (RiboGreen) assay: nucleic acid cargo content and encapsulation efficiency of LNPs; format: physicochemical; details: LNP compositions for Formulation F2 Study
Outline: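 LNPs made by microfluidic mixing of ethanolic lipids with mRNA in pH 4.0 citrate, dialyzed into PBS pH 7.4. Cargo quantified by RiboGreen fluorescence against a standard curve: Triton-lysed samples give total, TE-only samples give free cargo; encapsulation efficiency from their ratio.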

## CCCCC/C=C\CCOC(=O)CCCCC(=O)OCC(COC(=O)CCCCC(=O)OCC/C=C\CCCCC)(COC(=O)CCC(CCCCCC)OC(=O)NCCN1CCCC1)COC(=O)C12CC3CC(CC(C3)C1)C2 (stereo not shown) [Compound 63, O6-[2-(adamantane-1-carbonyloxymethyl)-2-[[6-[(Z)-non-3-enoxy]-6-oxo-hexanoyl]oxymethyl]-3-[4-(2-pyrrolidin-1-ylethylcarbamoyloxy)decanoyloxy]propyl]O1-[(Z)-non-3-enyl]hexanedioate]
Mouse organs; Mouse 9, dose 0.5 mg/kg
  Organ Mean Total Flux Femur: 10.4 p/s (×10^6)
  Organ Mean Total Flux Heart: 1.9 p/s (×10^6)
  Organ Mean Total Flux Kidney: 2.4 p/s (×10^6)
  Organ Mean Total Flux Liver: 351.7 p/s (×10^6)
  Organ Mean Total Flux Lung: 37.3 p/s (×10^6)
  Organ Mean Total Flux Muscle: 37.4 p/s (×10^6)
  Organ Mean Total Flux Pancreas: 15.8 p/s (×10^6)
  Organ Mean Total Flux Spleen: 40.7 p/s (×10^6)
NHP organs
  Mean normalized UMI counts (×10^4) Bone Marrow: 233.0 ×10^4
  Mean normalized UMI counts (×10^4) Brain: 72.8 ×10^4
  Mean normalized UMI counts (×10^4) Heart: 115.8 ×10^4
  Mean normalized UMI counts (×10^4) Kidney: 153.6 ×10^4
  Mean normalized UMI counts (×10^4) Liver: 108.2 ×10^4
  Mean normalized UMI counts (×10^4) Lung: 139.5 ×10^4
  Mean normalized UMI counts (×10^4) Muscle: 142.7 ×10^4
  Mean normalized UMI counts (×10^4) Pancreas: 89.4 ×10^4
  Mean normalized UMI counts (×10^4) Spleen: 207.6 ×10^4

## CCCCC/C=C\C/C=C\CCCCCCCCC(CCCCCCCC/C=C\C/C=C\CCCCC)OC(=O)CCCN(C)C [MC3, reference compound]
[1]
  PDI: 0.098
  Particle Size (nm): 87.8 nm
[2]
  EE %: 98%
Mouse organs; Mouse 1, dose 0.3 mg/kg
  Organ Mean Total Flux Femur: 8.5 p/s (×10^6)
  Organ Mean Total Flux Heart: 2.8 p/s (×10^6)
  Organ Mean Total Flux Kidney: 1.9 p/s (×10^6)
  Organ Mean Total Flux Liver: 6896 p/s (×10^6)
  Organ Mean Total Flux Lung: 17.2 p/s (×10^6)
  Organ Mean Total Flux Muscle: 7.5 p/s (×10^6)
  Organ Mean Total Flux Pancreas: 2.6 p/s (×10^6)
  Organ Mean Total Flux Spleen: 22.3 p/s (×10^6)
Mouse organs; Mouse 2, dose 1.0 mg/kg
  Organ Mean Total Flux Femur: 9.9 p/s (×10^6)
  Organ Mean Total Flux Heart: 17.0 p/s (×10^6)
  Organ Mean Total Flux Kidney: 16.6 p/s (×10^6)
  Organ Mean Total Flux Liver: 15500 p/s (×10^6)
  Organ Mean Total Flux Lung: 60.5 p/s (×10^6)
  Organ Mean Total Flux Muscle: 16.6 p/s (×10^6)
  Organ Mean Total Flux Pancreas: 7.4 p/s (×10^6)
  Organ Mean Total Flux Spleen: 23.0 p/s (×10^6)
Mouse organs; Mouse 3, dose 1.0 mg/kg
  Organ Mean Total Flux Femur: 6.9 p/s (×10^6)
  Organ Mean Total Flux Heart: 8.5 p/s (×10^6)
  Organ Mean Total Flux Kidney: 7.3 p/s (×10^6)
  Organ Mean Total Flux Liver: 9707 p/s (×10^6)
  Organ Mean Total Flux Lung: 106.4 p/s (×10^6)
  Organ Mean Total Flux Muscle: 23.6 p/s (×10^6)
  Organ Mean Total Flux Pancreas: 2.7 p/s (×10^6)
  Organ Mean Total Flux Spleen: 22.8 p/s (×10^6)
Mouse organs; Mouse 5, dose 0.5 mg/kg
  Organ Mean Total Flux Femur: 4.8 p/s (×10^6)
  Organ Mean Total Flux Heart: 5.7 p/s (×10^6)
  Organ Mean Total Flux Kidney: 18.6 p/s (×10^6)
  Organ Mean Total Flux Liver: 5667 p/s (×10^6)
  Organ Mean Total Flux Lung: 34.5 p/s (×10^6)
  Organ Mean Total Flux Muscle: 10.0 p/s (×10^6)
  Organ Mean Total Flux Pancreas: 1.9 p/s (×10^6)
  Organ Mean Total Flux Spleen: 17.6 p/s (×10^6)
Mouse organs; Mouse 6, dose 0.5 mg/kg
  Organ Mean Total Flux Femur: 3.3 p/s (×10^6)
  Organ Mean Total Flux Heart: 5.2 p/s (×10^6)
  Organ Mean Total Flux Kidney: 3.9 p/s (×10^6)
  Organ Mean Total Flux Liver: 4796 p/s (×10^6)
  Organ Mean Total Flux Lung: 28.6 p/s (×10^6)
  Organ Mean Total Flux Muscle: 8.2 p/s (×10^6)
  Organ Mean Total Flux Pancreas: 3.6 p/s (×10^6)
  Organ Mean Total Flux Spleen: 11.7 p/s (×10^6)
Mouse organs; Mouse 9, dose 0.5 mg/kg
  Organ Mean Total Flux Femur: 3.8 p/s (×10^6)
  Organ Mean Total Flux Heart: 4.1 p/s (×10^6)
  Organ Mean Total Flux Kidney: 2.1 p/s (×10^6)
  Organ Mean Total Flux Liver: 3903 p/s (×10^6)
  Organ Mean Total Flux Lung: 12.7 p/s (×10^6)
  Organ Mean Total Flux Muscle: 5.6 p/s (×10^6)
  Organ Mean Total Flux Pancreas: 1.1 p/s (×10^6)
  Organ Mean Total Flux Spleen: 5.4 p/s (×10^6)
Mouse organs; Mouse 11, dose 0.5 mg/kg
  Organ Mean Total Flux Femur: 2.2 p/s (×10^6)
  Organ Mean Total Flux Heart: 2.9 p/s (×10^6)
  Organ Mean Total Flux Kidney: 1.0 p/s (×10^6)
  Organ Mean Total Flux Liver: 2603 p/s (×10^6)
  Organ Mean Total Flux Lung: 12.1 p/s (×10^6)
  Organ Mean Total Flux Muscle: 2.7 p/s (×10^6)
  Organ Mean Total Flux Pancreas: 0.7 p/s (×10^6)
  Organ Mean Total Flux Spleen: 4.0 p/s (×10^6)
Mouse organs; Mouse 12, dose 0.5 mg/kg
  Organ Mean Total Flux Femur: 5.8 p/s (×10^6)
  Organ Mean Total Flux Heart: 2.4 p/s (×10^6)
  Organ Mean Total Flux Kidney: 53.9 p/s (×10^6)
  Organ Mean Total Flux Liver: 2307 p/s (×10^6)
  Organ Mean Total Flux Lung: 13.7 p/s (×10^6)
  Organ Mean Total Flux Muscle: 4.1 p/s (×10^6)
  Organ Mean Total Flux Pancreas: 9.6 p/s (×10^6)
  Organ Mean Total Flux Spleen: 8.6 p/s (×10^6)
Mouse organs; Mouse 13, dose 0.5 mg/kg
  Organ Mean Total Flux Femur: 2.7 p/s (×10^6)
  Organ Mean Total Flux Heart: 5.0 p/s (×10^6)
  Organ Mean Total Flux Kidney: 0.9 p/s (×10^6)
  Organ Mean Total Flux Liver: 1767 p/s (×10^6)
  Organ Mean Total Flux Lung: 8.3 p/s (×10^6)
  Organ Mean Total Flux Muscle: 2.8 p/s (×10^6)
  Organ Mean Total Flux Pancreas: 0.8 p/s (×10^6)
  Organ Mean Total Flux Spleen: 5.7 p/s (×10^6)
Mouse organs; Mouse 14, dose 0.5 mg/kg
  Organ Mean Total Flux Femur: 2.2 p/s (×10^6)
  Organ Mean Total Flux Heart: 4.4 p/s (×10^6)
  Organ Mean Total Flux Kidney: 26.8 p/s (×10^6)
  Organ Mean Total Flux Liver: 2037 p/s (×10^6)
  Organ Mean Total Flux Lung: 19.3 p/s (×10^6)
  Organ Mean Total Flux Muscle: 5.7 p/s (×10^6)
  Organ Mean Total Flux Pancreas: 1.2 p/s (×10^6)
  Organ Mean Total Flux Spleen: 8.5 p/s (×10^6)
